From ChEMBL document CHEMBL5046233, “Nitroxoline and its derivatives are potent inhibitors of metallo-β-lactamases” (Eur J Med Chem, 2022) come the findings set out here.

In general, MIC refers to the lowest concentration found to suppress growth. Usually inhibition stands for the change of the read-out against control, counted positive when it falls.

For test [1], the system named is Escherichia coli. As to the kind of experiment: Potentiation of imipenem-induced antibacterial activity against Escherichia coli clinical isolate T2228 expressing VIM-1 assessed as imipenem MIC at 32 mg/L by CLSI protocol based broth microdilution assay. The class given is functional. On the technique in general: Dilution methods test growth across graded concentrations, often in twofold steps.

The subject of test [2] is Bacteria. Description: Inhibition of recombinant NDM-1 (unknown origin) using fluorocillin as substrate in presence of ZnCl2 incubated for 30 mins by fluorescence based assay.
Test [3] concerns Bacteria. As to the kind of experiment: Inhibition of recombinant VIM-1 (unknown origin) using fluorocillin as substrate at 10 uM incubated for 30 mins by fluorescence based assay.
Test [4] deals with Escherichia coli. Description: Synergistic antibacterial activity against Escherichia coli T2359 expressing NDM-1 assessed as fractional inhibitory concentration index in presence of imipenem by checkerboard assay. The class given is functional.
The subject of test [5] is Klebsiella pneumoniae. As to the kind of experiment: Potentiation of imipenem-induced antibacterial activity against Klebsiella pneumoniae T2216 expressing VIM-1 assessed as fold change in imipenem MIC at 32 mg/L by CLSI protocol based broth microdilution assay. The class given is functional.
Test [6] has as its system Bacteria. Description: Inhibition of recombinant VIM-1 (unknown origin) using fluorocillin as substrate at 30 uM incubated for 30 mins by fluorescence based assay.
A further test deals with Pseudomonas aeruginosa. As to the kind of experiment: Potentiation of imipenem-induced antibacterial activity against Pseudomonas aeruginosa T2357 expressing VIM-1 assessed as fold change in imipenem MIC at 32 mg/L by CLSI protocol based broth microdilution assay. The class given is functional.
The test system of test [7] is Klebsiella pneumoniae. Description: Potentiation of imipenem-induced antibacterial activity against Klebsiella pneumoniae T2432 expressing KPC-9 assessed as imipenem MIC at 32 mg/L by CLSI protocol based broth microdilution assay. The test is classed as functional.
Test [8] concerns Escherichia coli. As to the kind of experiment: Antimicrobial activity against Escherichia coli T2359 expressing VIM-1 assessed as assessed as inhibition of bacterial growth at 0.5XMIC measured after 24 hrs by time-kill assay. The test is classed as functional, organism-based.
Test [9] is described as follows: Inhibition of recombinant NDM-1 (unknown origin) using fluorocillin as substrate at 10 uM incubated for 30 mins by fluorescence based assay. The note with it: Bacteria.
In test [10] the test system is Escherichia coli. As to the kind of experiment: Potentiation of imipenem-induced antibacterial activity against Escherichia coli T2544 expressing VIM-1 assessed as fold change in imipenem MIC at 32 mg/L by CLSI protocol based broth microdilution assay. The test is classed as functional.

Activity calls are given as the source filed them. No cut-off for these calls is given here.

For `N#CCN(Cc1ccccc1)Cc1cc([N+](=O)[O-])c2cccnc2c1O`, the values for the MIC with Escherichia coli [1] and in the test with Klebsiella pneumoniae [7] were 1 ng/mL and 16 ng/mL, respectively. In addition, the inhibition entry in the test on Bacteria [2] was “inactive”. Further, the inhibition in the test on Bacteria [3] came to 100%; in the test with Bacteria [6], 100%; in test [9] it was 88%. Besides, the “fractional inhibitory concentration index (FICI)” value in the test on Escherichia coli [4] was found to be 0.265. The “fold change (FC)” value with Klebsiella pneumoniae [5] is reported as 8; in the test with Pseudomonas aeruginosa, 32; in the test on Escherichia coli [10] it was 64. Moreover, in the test on Escherichia coli [8], the result was inactive.
